Paper PMC11040670, “Mechanistic and Kinetic Insights into Cellular Uptake of Biomimetic Dinitrosyl Iron Complexes and Intracellular Delivery of NO for Activation of Cytoprotective HO-1” (JACS Au, 2024)
Marks after values point to notes of the source that are not given here.

Tests used:
[1] = NO-release reactivity of DNICs (total nitrate/nitrite assay); type: physicochemical; details: dinuclear DNIC 25 μM, phosphate buffer (pH 7.4), no additive, normoxia, 37 °C
Procedure: The NO-release reactivity of DNICs in 50 mM potassium phosphate buffer (pH 7.4) under normoxia condition at 37 °C was investigated using Nitrate/Nitrite Colorimetric Assay Kit (Item No. 780001, Cayman). After addition of 10 μL of 100 mM stock solution of DNIC–COOH (or DNIC–COOMe) in DMSO to 990 μL of 50 mM potassium phosphate buffer (pH 7.4), 25 μM of DNIC–COOH (or DNIC–COOMe) was prepared by the addition of 0.125 mL of this 1 mM solution of DNIC–COOH (or DNIC–COOMe) to 4.875 mL of 50 mM potassium phosphate buffer (pH 7.4). This solution was incubated at 37 °C under normoxia condition for 0, 1, 2, 4, 8, 24, 48, and 72 h, respectively. Then, 40 μL of the solution was collected to assess the release of NO using a Nitrate/Nitrite Colorimetric Assay Kit (Item No. 780001, Cayman). After each 40 μL aliquot of the aqueous solution was mixed with 40 μL of kit assay buffer, 10 μL of Enzyme Cofactor Mixture (Item No. 780012) and 10 μL of nitrate reductase mixture (Item No. 780010) were added before this mixture solution was incubated at room temperature for 1 h. […] The absorbance at 540 nm was then recorded using a microplate reader (SpectraMax iD3, Molecular Devices, San Jose, CA) with a reference wavelength of 800 nm. […]

[2] = test system: deoxyMb; test: Direct transfer of NO to deoxyMb yielding MbNO (UV–vis); type: biochemical; details: deoxyMb 5 μM/Cys 200 μM, generated [(NO)2Fe(SR)(SCys)]n−, phosphate buffer (pH 7.4), anaerobic
Procedure: After addition of 30 μL of 500 μM stock solution of DNIC–COOH (in DMSO) to a 4 mL quartz cuvette containing 5 μM metMb and 200 μM Cys in 3 mL of 25 mM PBS (pH 7.4), UV–vis spectra for this mixture solution were measured every 30 min. Transformation of […] into MbNO was achieved after reaction for 4 h based on the complete shift of UV–vis absorption bands from (410, 502, and 629) nm to (419, 548, and 578) nm.
Reactions of (a) 5 μM of DNIC–COOMe with 5 μM of metMb in the presence of 200 μM of Cys, (b) 5 μM of DNIC–COOH/DNIC–COOMe with 5 μM of deoxyMb in the presence of 200 μM of Cys, and (c) 5 μM of DNIC–COOH/DNIC–COOMe with 5 μM of metMb in the presence of 50 mg/mL BSA were performed under a similar manner.

SMILES | t1/2 for release of NO from DNICs [1] | reaction time for complete conversion of deoxyMb into MbNO [2] | reaction time for complete conversion of deoxyMb into MbNO ([2]; listed as DNIC-COOH) | reaction time for complete conversion of deoxyMb into MbNO ([2]; listed as DNIC-COOMe)
O=[N][Fe]1([N]=O)[SH](CCC(=O)O)[Fe]([N]=O)([N]=O)[SH]1CCC(=O)O (stereo not drawn) [DNIC–COOH, [(NO)2Fe(μ-SCH2CH2COOH)2Fe(NO)2]] | 10.7 ± 1.4 ^e h | 3.5 ^f h | 3.5 h | –
COC(=O)CC[SH]1[Fe]([N]=O)([N]=O)[SH](CCC(=O)OC)[Fe]1([N]=O)[N]=O (stereo not drawn) [DNIC–COOMe, [(NO)2Fe(μ-SCH2CH2COOCH3)2Fe(NO)2]] | 9.1 ± 0.6 ^e h | 2.0 ^f h | – | 2.0 h
